Measurements from patent publication US11939327B2, “Heterocyclic compounds” (Takeda Pharmaceutical Company Limited, priority 2017, dated 2024).

These compounds were tested against T1, human GluR1 flip (Homo sapiens, UniProt P42261) (assay: AMPA receptor function-enhancing activity using calcium influx as index (CHO-K1/GluR1 flip/stargazin-expressing cells)). Settings: CHO-K1, test compound 30 μM with 3 mM glutamic acid, 100% = 3 mM glutamic acid + 300 μM cyclothiazide, 0% = 3 mM glutamic acid alone, read-out: hGluR1 flip/30 μM (%).
T1 construct: expressed in transfected cells; host or cells: CHO-K1
Type: cell-based
From the text: Experimental Example 1 Measurement method of AMPA receptor function-enhancing activity of compound using calcium influx as index
(1) Construction of Expression Gene
Human GluR1 flip cDNA was amplified by PCR method using forward primer […] (SEQ ID NO: 1) and reverse primer […] (SEQ ID NO: 2) artificially synthesized using human brain-derived cDNA (BD Bioscience) as a template. The amplified product was digested with restriction enzymes EcoRI, NotI (TAKARA SHUZO CO. LTD.) and incorporated into the same site of pcDNA3.1(+) (Invitrogen) to construct pcDNA3.1(+)/human GluR1 flip gene. Human stargazin cDNA was amplified by PCR method using forward primer […] (SEQ ID NO: 3) and reverse primer […] (SEQ ID NO: 4) artificially synthesized using human hippocampus cDNA as a template. The amplified product was digested with restriction enzymes XhoI, BamHI (TAKARA SHUZO CO. LTD.) and incorporated into the same site of pcDNA3.1(−) (Invitrogen) to construct pcDNA3.1 Zeo(−)/human stargazing gene.
(2) Construction of GluR1 Flip/Stargazin Expressing Cell
CHO-K1 cells passaged in a culture medium (Ham's F12 medium (Invitrogen) added with 10% inactivated fetal bovine serum (Morgate) and penicillin, streptomycin (Invitrogen)) were detached using 0.05% trypsin and 0.53 mM EDTA (Invitrogen) diluted with D-PBS(−). The detached cells were suspended in a culture medium, and recovered by centrifugation at 1,000 rpm. The recovered cells were re-suspended in D-PBS(−) and added into 0.4 cm electroporation cuvette (BioRad). pcDNA3.1(+)/human GluR1 flip gene (5 μg) and pcDNA3.1 Zeo(−)/human stargazin gene (15 μg) were added, and introduced into CHO-K1 cells under the conditions of 950 μFd, […] and using Gene Pulser II (BioRad). The introduced cells were cultured overnight in a culture medium. The next day, using a selection medium (culture medium added with zeocin (Invitrogen) at 250 μg/mL), the cells were plated in a 96 well plate at 250 cells/well. The clones showing drug resistance were selected, and GluR1 flip/stargazin expression clones were selected by an assay method shown below using calcium influx as an index.
(3) Measurement Method of AMPA Receptor Function-Enhancing Activity of Compound, Using Calcium Influx as an Index
CHO-K1/GluR1 flip/stargazin-expressing cells were plated on a 384 well black bottom transparent plate, and cultured for 2 days in a CO2 incubator (SANYO ELECTRIC Co. Ltd.) at 37° C. The medium of the cell plate was removed. A calcium indicator (Calcium5 Assay Kit, Molecular Devices) was diluted with an assay buffer (HBSS (Thermo Fisher Scientific), 0.1% BSA (Merck Millipoer) and 10 mM HEPES (Thermo Fisher Scientific)), and 1.25 mM probenecid (Dojindo Laboratories) was added thereto. The mixture prepared above was added at 30 μL/well (100 μL/well in case of 96 wells) to the well, and the well was left standing in 37° C., CO2 incubator for 1 hr. The cell plate was set in CellLux (PerkinElmer), a mixture (15 μL) (50 μL/well in case of 96 wells) of […] glutamic acid (final concentration 3 mM) diluted with an assay buffer and a test compound (test compound concentration 30 μM) was added thereto, and variation in the amount of fluorescence was measured for 3 min. The variation of fluorescence level of a well added with final concentration 3 mM of glutamic acid and 300 μM cyclothiazide (TOCRIS) was defined as 100%, the variation of fluorescence level of a well added with final concentration 3 mM of glutamic acid alone was defined as 0%, and the activity of the compound was calculated by the following formula. activity (%)=(X−C)/(T−C)×100 • T: variation of fluorescence level of well added with final concentration 3 mM of glutamic acid and 300 μM cyclothiazide • C: variation of fluorescence level of well added with final concentration 3 mM of glutamic acid alone • X: variation of fluorescence level of well added with test compound

T1 sequence (P42261 19-906 isoform P42261-2 limits assumed): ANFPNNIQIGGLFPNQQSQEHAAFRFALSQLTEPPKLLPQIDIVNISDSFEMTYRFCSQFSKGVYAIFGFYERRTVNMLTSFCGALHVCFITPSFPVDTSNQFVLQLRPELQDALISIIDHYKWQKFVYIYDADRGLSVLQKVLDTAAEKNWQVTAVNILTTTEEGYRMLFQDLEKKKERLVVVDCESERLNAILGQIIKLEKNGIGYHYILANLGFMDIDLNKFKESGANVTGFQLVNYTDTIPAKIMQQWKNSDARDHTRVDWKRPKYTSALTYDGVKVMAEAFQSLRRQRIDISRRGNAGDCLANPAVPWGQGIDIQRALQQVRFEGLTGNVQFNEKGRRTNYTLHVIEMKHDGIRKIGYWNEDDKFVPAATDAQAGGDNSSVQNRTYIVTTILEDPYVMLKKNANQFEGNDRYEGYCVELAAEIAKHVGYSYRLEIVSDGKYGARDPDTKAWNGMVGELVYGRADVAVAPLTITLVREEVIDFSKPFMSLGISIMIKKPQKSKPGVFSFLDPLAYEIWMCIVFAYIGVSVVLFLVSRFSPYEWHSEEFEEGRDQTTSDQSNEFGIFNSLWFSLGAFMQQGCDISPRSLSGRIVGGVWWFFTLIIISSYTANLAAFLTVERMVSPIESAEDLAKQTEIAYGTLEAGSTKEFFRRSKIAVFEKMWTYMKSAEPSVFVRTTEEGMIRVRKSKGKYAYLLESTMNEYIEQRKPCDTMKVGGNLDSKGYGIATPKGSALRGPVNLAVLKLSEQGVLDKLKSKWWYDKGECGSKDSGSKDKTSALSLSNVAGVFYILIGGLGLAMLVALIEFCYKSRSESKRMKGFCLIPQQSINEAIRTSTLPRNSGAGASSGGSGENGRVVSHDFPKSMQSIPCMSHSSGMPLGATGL
T1 sequence (Q9Y698 whole entry partner): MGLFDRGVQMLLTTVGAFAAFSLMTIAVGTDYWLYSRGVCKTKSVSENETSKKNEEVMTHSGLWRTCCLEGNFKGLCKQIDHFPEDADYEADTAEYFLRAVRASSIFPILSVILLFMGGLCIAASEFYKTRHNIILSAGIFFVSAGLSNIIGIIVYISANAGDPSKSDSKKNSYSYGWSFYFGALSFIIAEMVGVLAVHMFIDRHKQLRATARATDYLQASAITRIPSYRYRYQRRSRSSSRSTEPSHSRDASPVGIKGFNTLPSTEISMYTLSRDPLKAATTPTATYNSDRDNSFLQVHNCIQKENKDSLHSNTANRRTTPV

SMILES	activation at 30 µM
CCn1c(C(F)(F)F)nc2c(-c3ccc(C(=O)N4CCOCC4)cc3)cccc21 [Example 2, (4-(1-ethyl-2-(trifluoromethyl)-1H-benzimidazol-4-yl)phenyl)(morpholin-4-yl)methanone]	79.3%
CCn1c(C(F)(F)F)nc2c(-c3ccc(C(=O)N4CCOCC4)cc3)nccc21 [Example 4, (4-(1-ethyl-2-(trifluoromethyl)-1H-imidazo[4,5-c]pyridin-4-yl)phenyl)(morpholin-4-yl)methanone]	68.4%
O=C(c1ccc(-c2cccc3c2nc(C(F)(F)F)n3CC(F)F)cc1)N1CCOCC1 [Example 7, (4-(1-(2,2-difluoroethyl)-2-(trifluoromethyl)-1H-benzimidazol-4-yl)phenyl)(morpholin-4-yl)methanone]	83.3%
CCn1c(C(F)(F)F)nc2c(-c3ccc(C(=O)N4CCOCC4)c(F)c3)nccc21 [Example 8, (4-(1-ethyl-2-(trifluoromethyl)-1H-imidazo[4,5-c]pyridin-4-yl)-2-fluorophenyl)(morpholin-4-yl)methanone]	109%
CCn1c(C(F)(F)F)nc2c(-c3ccc(C(=O)N4CCO[C@@H](C)C4)c(F)c3)nccc21 [Example 9, (4-(1-ethyl-2-(trifluoromethyl)-1H-imidazo[4,5-c]pyridin-4-yl)-2-fluorophenyl)((2S)-2-methylmorpholin-4-yl)methanone]	110%
C[C@H]1CN(C(=O)c2ccc(-c3cccc4c3nc(C(F)(F)F)n4C)cc2F)CCO1 [Example 11, (2-fluoro-4-(1-methyl-2-(trifluoromethyl)-1H-benzimidazol-4-yl)phenyl)((2S)-2-methylmorpholin-4-yl)methanone]	80.3%
Cn1c(C(F)(F)F)nc2c(-c3ccc(C(=O)N4CCOCC4)c(F)c3)cccc21 [Example 12, (2-fluoro-4-(1-methyl-2-(trifluoromethyl)-1H-benzimidazol-4-yl)phenyl)(morpholin-4-yl)methanone]	84.4%
C[C@H]1CN(C(=O)c2ccc(-c3cccc4c3nc(C(F)(F)F)n4CC(F)F)cc2)CCO1 [Example 13, (4-(1-(2,2-difluoroethyl)-2-(trifluoromethyl)-1H-benzimidazol-4-yl)phenyl)((2S)-2-methylmorpholin-4-yl)methanone]	112%
O=C(c1ccc(-c2cccc3c2nc(C(F)(F)F)n3CC(F)F)cc1)N1CCCOCC1 [Example 14, (4-(1-(2,2-difluoroethyl)-2-(trifluoromethyl)-1H-benzimidazol-4-yl)phenyl)(1,4-oxazepan-4-yl)methanone]	92.6%
O=C(c1ccc(-c2nccc3c2nc(C(F)(F)F)n3CC(F)F)cc1F)N1CCCOCC1 [Example 15, (4-(1-(2,2-difluoroethyl)-2-(trifluoromethyl)-1H-imidazo[4,5-c]pyridin-4-yl)-2-fluorophenyl)(1,4-oxazepan-4-yl)methanone]	72%
O=C(c1ccc(-c2cccc3c2nc(C(F)(F)F)n3CC(F)F)cc1)N1CCOC(C(F)F)C1 (stereo not shown) [Example 16, (4-(1-(2,2-difluoroethyl)-2-(trifluoromethyl)-1H-benzimidazol-4-yl)phenyl)(2-(difluoromethyl)morpholin-4-yl)methanone]	108%
C[C@H]1CN(C(=O)c2ccc(-c3nccc4c3nc(C(F)(F)F)n4CC(F)F)cc2F)CCO1 [Example 17, (4-(1-(2,2-difluoroethyl)-2-(trifluoromethyl)-1H-imidazo[4,5-c]pyridin-4-yl)-2-fluorophenyl)((2S)-2-methylmorpholin-4-yl)methanone]	95.1%
CN(CCC#N)C(=O)c1ccc(-c2nccc3c2nc(C(F)(F)F)n3CC(F)F)cc1F [Example 19, N-(2-cyanoethyl)-4-(1-(2,2-difluoroethyl)-2-(trifluoromethyl)-1H-imidazo[4,5-c]pyridin-4-yl)-2-fluoro-N-methylbenzamide]	81%
